{
  "source": "paper PMC9683716",
  "about": "(Science Advances, 2022)",
  "key": {"[1]": {"molecular_target": "T1, recombinant Naam T294E mutant (Drosophila melanogaster, UniProt Q9VDU7, T294E)", "T1 sequence (Q9VDU7 1-357 T294E)": "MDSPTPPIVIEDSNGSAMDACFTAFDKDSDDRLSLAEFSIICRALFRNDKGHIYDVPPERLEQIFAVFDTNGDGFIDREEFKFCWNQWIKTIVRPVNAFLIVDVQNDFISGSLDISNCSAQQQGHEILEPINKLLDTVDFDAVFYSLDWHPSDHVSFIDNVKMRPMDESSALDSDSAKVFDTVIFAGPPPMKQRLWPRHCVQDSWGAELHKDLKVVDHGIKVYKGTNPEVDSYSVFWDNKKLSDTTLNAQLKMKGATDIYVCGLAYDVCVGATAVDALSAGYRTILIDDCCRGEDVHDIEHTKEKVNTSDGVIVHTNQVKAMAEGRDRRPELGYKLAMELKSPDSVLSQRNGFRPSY", "type": "biochemical"}, "[2]": {"molecular_target": "T2, C. elegans PNC-2 (Caenorhabditis elegans, UniProt Q7YTI0)", "T2 sequence (Q7YTI0 1-316)": "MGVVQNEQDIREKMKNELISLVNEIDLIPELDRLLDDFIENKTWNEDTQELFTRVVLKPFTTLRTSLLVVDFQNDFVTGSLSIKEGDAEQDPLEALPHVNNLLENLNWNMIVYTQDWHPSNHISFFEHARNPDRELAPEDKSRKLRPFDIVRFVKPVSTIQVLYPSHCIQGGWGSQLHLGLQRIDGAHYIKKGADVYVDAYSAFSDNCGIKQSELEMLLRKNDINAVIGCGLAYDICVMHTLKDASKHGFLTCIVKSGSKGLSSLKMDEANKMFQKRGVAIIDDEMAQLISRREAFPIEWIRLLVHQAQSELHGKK", "assay": "Naam inhibition assay, C. elegans PNC-2", "type": "biochemical"}, "[3]": {"molecular_target": "Myzus persicae (aphid) Naam", "assay": "Naam inhibition assay, aphid Naam", "type": "biochemical"}, "[4]": {"molecular_target": "Nilaparvata lugens (planthopper) Naam", "assay": "Naam inhibition assay, planthopper Naam", "type": "biochemical"}, "[5]": {"molecular_target": "T3, Apis mellifera (honey bee) Naam2 (Apis mellifera, UniProt A0A7M7MP11)", "T3 sequence (A0A7M7MP11 1-346)": "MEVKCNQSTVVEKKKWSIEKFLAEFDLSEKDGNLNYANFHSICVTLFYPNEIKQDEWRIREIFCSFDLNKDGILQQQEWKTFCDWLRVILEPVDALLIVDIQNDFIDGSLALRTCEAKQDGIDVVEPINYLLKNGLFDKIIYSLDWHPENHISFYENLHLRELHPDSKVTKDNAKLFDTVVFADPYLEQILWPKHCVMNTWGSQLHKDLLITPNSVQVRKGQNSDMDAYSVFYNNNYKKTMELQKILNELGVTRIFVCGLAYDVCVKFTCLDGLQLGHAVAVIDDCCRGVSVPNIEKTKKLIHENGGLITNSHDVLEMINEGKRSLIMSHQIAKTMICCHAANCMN", "assay": "Naam enzyme activity and inhibition assay, honey bee Naam2", "type": "biochemical"}, "[6]": {"molecular_target": "T4, Aedes albopictus (mosquito) Naam (Aedes albopictus, UniProt A0ABM2A4C4)", "T4 sequence (A0ABM2A4C4 1-377)": "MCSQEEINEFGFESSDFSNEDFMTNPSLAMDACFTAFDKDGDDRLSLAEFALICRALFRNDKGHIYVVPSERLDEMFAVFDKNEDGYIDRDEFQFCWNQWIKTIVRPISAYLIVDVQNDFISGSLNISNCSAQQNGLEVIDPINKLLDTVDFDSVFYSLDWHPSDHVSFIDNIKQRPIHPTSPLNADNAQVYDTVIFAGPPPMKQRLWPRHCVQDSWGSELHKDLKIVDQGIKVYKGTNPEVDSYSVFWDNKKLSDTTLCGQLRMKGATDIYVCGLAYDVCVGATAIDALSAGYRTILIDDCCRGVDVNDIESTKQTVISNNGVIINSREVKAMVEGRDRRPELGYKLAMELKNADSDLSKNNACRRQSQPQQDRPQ", "assay": "Naam inhibition assay, mosquito Naam", "type": "biochemical"}, "[7]": {"system": "Drosophila flies", "assay": "Climbing assay", "type": "in vivo, Drosophila melanogaster"}, "[8]": {"system": "Nan-Iav TRPV channels", "details": "cited from earlier work"}, "[9]": {"molecular_target": "T5, recombinant Drosophila Naam (Drosophila melanogaster, UniProt Q9VDU7)", "T5 sequence (Q9VDU7 1-357)": "T1 sequence (Q9VDU7 1-357 T294E) with E294T", "assay": "Naam enzyme activity and inhibition assay", "type": "biochemical"}, "[10]": {"molecular_target": "B. burgdorferi PncA (Borreliella burgdorferi, UniProt G1FKW2)", "assay": "Naam inhibition assay, B. burgdorferi PncA", "type": "biochemical, Borrelia burgdorferi"}, "[11]": {"molecular_target": "T6, recombinant Naam A265E mutant (Drosophila melanogaster, UniProt Q9VDU7, A265E)", "T6 sequence (Q9VDU7 1-357 A265E)": "T1 sequence (Q9VDU7 1-357 T294E) with A265E, E294T"}, "[12]": {"molecular_target": "T7, C. elegans PNC-1 (Caenorhabditis elegans, UniProt Q9N426)", "T7 sequence (Q9N426 25-335)": "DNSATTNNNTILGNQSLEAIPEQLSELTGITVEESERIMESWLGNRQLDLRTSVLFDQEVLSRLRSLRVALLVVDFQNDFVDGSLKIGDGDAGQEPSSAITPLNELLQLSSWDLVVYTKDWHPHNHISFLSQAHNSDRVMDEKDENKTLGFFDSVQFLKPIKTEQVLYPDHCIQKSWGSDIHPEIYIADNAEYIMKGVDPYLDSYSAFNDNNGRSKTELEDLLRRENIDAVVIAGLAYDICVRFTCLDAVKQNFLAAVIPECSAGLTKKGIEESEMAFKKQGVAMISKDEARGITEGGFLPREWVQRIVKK", "assay": "Naam inhibition assay, C. elegans PNC-1", "type": "biochemical"}, "[13]": {"system": "mice", "details": "cited from earlier work"}, "[14]": {"system": "C. elegans N2 Bristol strain", "assay": "Egg-laying assay", "type": "in vivo, Caenorhabditis elegans", "details": "wild-type nematodes, high concentrations"}},
  "note": "Numbering of substitutions follows the chain as printed. “And” between values parts separate entries of the source, which are not always exact repeats. Identical values can stand only once.",
  "data": [
    {"smiles": "NC(=O)c1cnccc1C(F)(F)F", "note": "[TFNA-AM, 4-trifluoromethylnicotinamide]", "values": [
      {"measurement": "resistance based on increase in Ki vs wild-type Naam", "setting": "[1]", "result": 7.5, "unit": "fold"},
      {"measurement": "sensitivity of PNC-2", "setting": "[2]", "result": "neither PNC-1 nor PNC-2 was sensitive"},
      {"measurement": "Ki", "setting": "[3]", "result": 80, "unit": "nM"},
      {"measurement": "Ki", "setting": "[4]", "result": 600, "unit": "nM"},
      {"measurement": "Ki", "setting": "[5]", "result": 16700, "unit": "nM"},
      {"measurement": "fold less sensitive than the honey bee Naam1", "setting": "[5]; Ki Naam2 vs Naam1", "result": 21, "unit": "fold"},
      {"measurement": "fold less sensitive than the aphid Naam", "setting": "[5]; Ki Naam2 vs aphid Naam", "result": 209, "unit": "fold"},
      {"measurement": "Ki", "setting": "[6]", "result": 1090, "unit": "nM"},
      {"measurement": "reduction of climbing ability compared with FL", "setting": "[7]; 2 mM, after 1 hour of feeding, score at 30 s", "result": "more effective than FL"},
      {"measurement": "difference to FL in reduction of climbing ability", "setting": "[7]; 2 mM, after 3 hours of feeding, score at 30 s", "result": "not significant"},
      {"measurement": "effect on climbing scores in combination with NAM", "setting": "[7]; 10 or 20 μM combined with NAM", "result": "significantly synergized the toxicity of NAM"},
      {"measurement": "negative geotaxis (climbing index at 30 s)", "setting": "[7]; control flies, 2 mM for 3 hours", "result": "< 15", "unit": "%"},
      {"measurement": "climbing index (at 30 s)", "setting": "[7]; in vivo", "result": "68% and 52%"},
      {"measurement": "concentration that suppressed negative geotaxis", "setting": "[7]; in vivo", "result": "≥ 20", "unit": "µM"},
      {"measurement": "effect of Naam knockdown on climbing index", "setting": "[7]; in vivo", "result": "had no effect"},
      {"measurement": "effect on negative geotaxis", "setting": "[7]; in vivo", "result": "virtually abolished"},
      {"measurement": "effect on negative geotaxis of Naam^A265E flies", "setting": "[7]; in vivo", "result": "did not impair negative geotaxis"},
      {"measurement": "sensitivity of heterozygous control flies in climbing assays", "setting": "[7]; in vivo", "result": "as sensitive as wild-type flies"},
      {"measurement": "effect on climbing scores, alone", "setting": "[7]; low doses (10 or 20 μM) alone", "result": "negligible effects"},
      {"measurement": "activation of heterologously expressed Nan-Iav TRPV channels", "setting": "[8]", "result": "neither FL nor its metabolite TFNA-AM activates"},
      {"measurement": "Ki", "setting": "[9]", "result": 720, "unit": "nM"},
      {"measurement": "enzymatic activity of Naam in the presence of compound", "setting": "[9]; 100 μM", "result": "markedly reduced the enzyme activity"},
      {"measurement": "Ki", "setting": "[10]", "result": 2370, "unit": "nM"},
      {"measurement": "resistance based on increase in Ki vs wild-type Naam", "setting": "[11]", "result": 415.7, "unit": "fold"},
      {"measurement": "sensitivity of PNC-1", "setting": "[12]", "result": "neither PNC-1 nor PNC-2 was sensitive"},
      {"measurement": "LD50 (median lethal dose)", "setting": "[13]", "result": "> 2000", "unit": "mg/kg"}
    ]},
    {"smiles": "CC1=NNC(=O)N(/N=C/c2cccnc2)C1", "note": "[pymetrozine]", "values": [
      {"measurement": "sensitivity of Naam knockdown flies", "setting": "[7]; in vivo", "result": "still sensitive"}
    ]},
    {"smiles": "CC(=O)N1C(=O)N(NCc2cccnc2)Cc2cc(C(F)(C(F)(F)F)C(F)(F)F)ccc21", "note": "[pyrifluquinazon]", "values": [
      {"measurement": "sensitivity of Naam knockdown flies", "setting": "[7]; in vivo", "result": "still sensitive"}
    ]},
    {"smiles": "O=Cc1cnccc1C(F)(F)F", "note": "[TNAH, 4-(trifluoromethyl)nicotinaldehyde]", "values": [
      {"measurement": "number of eggs laid", "setting": "[14]", "result": "significantly reduced the number of eggs laid"}
    ]},
    {"smiles": "NC(=O)c1cccnc1", "note": "[NAM, nicotinamide]", "values": [
      {"measurement": "effect on climbing scores", "setting": "[7]; 2 or 5 mM", "result": "no significant effect"},
      {"measurement": "effect on climbing scores", "setting": "[7]; feeding high concentrations (> 10 mM)", "result": "reduced the climbing scores"},
      {"measurement": "turnover number relative to wild-type Naam", "setting": "[11]; A265E substitution", "result": "~ 22%"}
    ]},
    {"smiles": "O=Cc1cccnc1", "note": "[NAH, Nicotinaldehyde]", "values": [
      {"measurement": "number of eggs laid", "setting": "[14]", "result": "significantly reduced the number of eggs laid"},
      {"measurement": "effect on flies in climbing assays", "setting": "[7]; even at 5 mM", "result": "no significant effect"},
      {"measurement": "Ki", "setting": "[9]", "result": 330, "unit": "nM"}
    ]}
  ]
}
